# Molecular target: JAK2 (JH1 domain-catalytic, Y1007F, Y1008F) kinase (Homo sapiens (Human), UniProt O60674, Y1007F/Y1008F)
# Assay: JAK2 JH1 Domain Binding Assay
# Conditions: qPCR readout
# Procedure: JAK2 (JH1 domain-catalytic, Y1007F, Y1008F) kinase was expressed as N-terminal fusion to the DNA binding domain of NFkB in transiently transfected HEK293 cells and subsequently tagged with DNA for qPCR detection. Streptavidin-coated magnetic beads were treated with biotinylated small molecule ligands for 30 minutes at room temperature to generate affinity resins for kinase assays. The liganded beads were blocked with excess biotin and washed with blocking buffer (SeaBlock (Pierce), 1% BSA, 0.05% Tween 20, 1 mmol/L DTT) to remove unbound ligand and to reduce nonspecific phage binding. Binding reactions were assembled by combining kinases, liganded affinity beads, and test compounds in 1× binding buffer (1× PBS, 0.05% Tween 20, 0.1% BSA, 1 mmol/L DTT). Test compound was prepared as 111× stocks in 100% DMSO and directly diluted into the assay wells. All reactions were performed in polypropylene 384-well plates in a final volume of 0.02 mL. The assay plates were incubated at room temperature with shaking for 1 hour and the affinity beads were washed with wash buffer (1× PBS, 0.05% Tween 20). The beads were then re-suspended in elution buffer (1× PBS, 0.05% Tween 20, 0.5 μmol/L non-biotinylated affinity ligand) and incubated at room temperature with shaking for 30 minutes. The kinase concentration in the eluate was measured by qPCR.
# Sequence of JAK2 (JH1 domain-catalytic, Y1007F, Y1008F) kinase (O60674 849-1124 Y1007F/Y1008F): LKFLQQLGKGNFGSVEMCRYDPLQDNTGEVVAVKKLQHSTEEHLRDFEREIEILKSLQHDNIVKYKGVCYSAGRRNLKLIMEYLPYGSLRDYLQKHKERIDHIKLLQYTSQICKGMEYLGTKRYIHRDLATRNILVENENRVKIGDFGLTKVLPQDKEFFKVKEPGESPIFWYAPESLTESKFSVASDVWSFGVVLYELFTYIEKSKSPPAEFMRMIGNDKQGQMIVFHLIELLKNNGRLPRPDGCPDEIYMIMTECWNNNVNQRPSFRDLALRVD
row,SMILES,Kd
1,"CN(C(=O)Nc1cc(C2CC2)cn([C@H]2CCCOC2)c1=O)C1CCN(c2cnc3[nH]ncc3c2)CC1 (single isomer, unassigned) [Example I-183-a, (S)- or (R)-1-(1-(1H-pyrazolo[3,4-b]pyridin-5-yl)piperidin-4-yl)-3-(5-cyclopropyl-2-oxo-1-(tetrahydro-2H-pyran-3-yl)-1,2-dihydropyridin-3-yl)-1-methylurea]",< 10 nM
2,"CN(C(=O)Nc1cc(C(F)(F)F)cn(C)c1=O)[C@H]1CCN(c2cnc3[nH]ncc3c2)C[C@@H]1F (stereo in doubt) [Example I-61-a, 1-((3S,4S)-3-fluoro-1-(1H-pyrazolo[3,4-b]pyridin-5-yl)piperidin-4-yl)-1-methyl-3-(1-methyl-2-oxo-5-(trifluoromethyl)-1,2-dihydropyridin-3-yl)urea]",< 10 nM
3,"CN(C(=O)Nc1cc(C(F)(F)F)cn(C)c1=O)[C@H]1CCN(c2cnc3[nH]ncc3c2)C[C@H]1F (stereo in doubt) [Example I-62-a, 1-((3R,4S)-3-fluoro-1-(1H-pyrazolo[3,4-b]pyridin-5-yl)piperidin-4-yl)-1-methyl-3-(1-methyl-2-oxo-5-(trifluoromethyl)-1,2-dihydropyridin-3-yl)urea]",< 10 nM
4,"CN(C(=O)Nc1cc(C(F)(F)F)cn(C)c1=O)[C@H]1CCN(c2cnc3[nH]n(C)c(=O)c3c2)CC1F (stereo in doubt) [Example I-90-a, 1-((3R,4S)-3-fluoro-1-(2-methyl-3-oxo-2,3-dihydro-1H-pyrazolo[3,4-b]pyridin-5-yl)piperidin-4-yl)-1-methyl-3-(1-methyl-2-oxo-5-(trifluoromethyl)-1,2-dihydropyridin-3-yl)urea]",10 to 50 nM
5,"Cc1cc(NC(=O)CC2CCN(c3cnccn3)CC2)cc(C(F)(F)F)c1 [Example I-1, N-(3-methyl-5-(trifluoromethyl)phenyl)-2-(1-(pyrazin-2-yl)piperidin-4-yl)acetamide]",1000 to 5000 nM
6,"CC(=O)Nc1cnc(N2CCC(CC(=O)Nc3cc(C)cc(C(F)(F)F)c3)CC2)cn1 [Example I-2, 2-(1-(5-acetamidopyrazin-2-yl)piperidin-4-yl)-N-(3-methyl-5-(trifluoromethyl)phenyl)acetamide]",50 to 1000 nM
7,"Cc1cc(NC(=O)C2(C3CCN(c4cnccn4)CC3)CC2)cc(C(F)(F)F)c1 [Example I-4, N-(3-methyl-5-(trifluoromethyl)phenyl)-1-(1-(pyrazin-2-yl)piperidin-4-yl)cyclopropane-1-carboxamide]",50 to 1000 nM
8,"Cn1cc(C(F)(F)F)cc(NC(=O)C2(C3CCN(c4cnccn4)CC3)CC2)c1=O [Example I-5, N-(1-methyl-2-oxo-5-(trifluoromethyl)-1,2-dihydropyridin-3-yl)-1-(1-(pyrazin-2-yl)piperidin-4-yl)cyclopropane-1-carboxamide]",50 to 1000 nM
9,"CC(=O)Nc1cnc(N2CCC(CC(=O)Nc3cccc(C(F)(F)F)c3)CC2)cn1 [Example I-6, 2-(1-(5-acetamidopyrazin-2-yl)piperidin-4-yl)-N-(3-(trifluoromethyl)phenyl)acetamide]",50 to 1000 nM
10,"CC(=O)Nc1cnc(N2CCC(CC(=O)Nc3cc(CN4CCN(C)CC4)cc(C(F)(F)F)c3)CC2)cn1 [Example I-7, 2-(1-(5-acetamidopyrazin-2-yl)piperidin-4-yl)-N-(3-((4-methylpiperazin-1-yl)methyl)-5-(trifluoromethyl)phenyl)acetamide]",1000 to 5000 nM
11,"Cc1cc(NC(=O)N(C)C2CCN(c3cnccn3)CC2)cc(C(F)(F)F)c1 [Example I-8, 1-methyl-3-(3-methyl-5-(trifluoromethyl)phenyl)-1-(1-(pyrazin-2-yl)piperidin-4-yl)urea]",10 to 50 nM
12,"CN(C(=O)Nc1cc(N2CCC(O)CC2)cc(C(F)(F)F)c1)C1CCN(c2cnccn2)CC1 [Example I-9, 3-(3-(4-hydroxypiperidin-1-yl)-5-(trifluoromethyl)phenyl)-1-methyl-1-(1-(pyrazin-2-yl)piperidin-4-yl)urea]",1000 to 5000 nM
13,"Cc1cc(NC(=O)N(C)C2CCN(c3cnc4[nH]ccc4n3)CC2)cc(C(F)(F)F)c1 [Example I-11, 1-(1-(5H-pyrrolo[2,3-b]pyrazin-2-yl)piperidin-4-yl)-1-methyl-3-(3-methyl-5-(trifluoromethyl)phenyl)urea]",< 10 nM
14,"CC(=O)Nc1ccc(N2CCC(N(C)C(=O)Nc3cc(C)cc(C(F)(F)F)c3)CC2)cn1 [Example I-12, N-(5-(4-(1-methyl-3-(3-methyl-5-(trifluoromethyl)phenyl)ureido)piperidin-1-yl)pyridin-2-yl)acetamide]",< 10 nM
15,"Cc1cc(NC(=O)N(C)C2CCN(c3cnc4[nH]ncc4c3)CC2)cc(C(F)(F)F)c1 [Example I-17, 1-(1-(1H-pyrazolo[3,4-b]pyridin-5-yl)piperidin-4-yl)-1-methyl-3-(3-methyl-5-(trifluoromethyl)phenyl)urea]",< 10 nM
16,"CC(=O)Nc1cnc(N2CCC(N(C)C(=O)Nc3cc(CN4CCN(C)CC4)cc(C(F)(F)F)c3)CC2)cn1 [Example I-19, N-(5-(4-(1-methyl-3-(3-((4-methylpiperazin-1-yl)methyl)-5-(trifluoromethyl)phenyl)ureido)piperidin-1-yl)pyrazin-2-yl)acetamide]",10 to 50 nM
17,"CN(C(=O)Nc1cc(C(F)(F)F)cn(C)c1=O)C1CCN(c2cnc3[nH]ccc3c2)CC1 [Example I-21, 1-(1-(1H-pyrrolo[2,3-b]pyridin-5-yl)piperidin-4-yl)-1-methyl-3-(1-methyl-2-oxo-5-(trifluoromethyl)-1,2-dihydropyridin-3-yl)urea]",< 10 nM
18,"CN(C(=O)Nc1cc(C(F)(F)F)cn(C)c1=O)C1CCN(c2cnc3[nH]c(C4CC4)cc3n2)CC1 [Example I-25, 1-(1-(6-cyclopropyl-5H-pyrrolo[2,3-b]pyrazin-2-yl)piperidin-4-yl)-1-methyl-3-(1-methyl-2-oxo-5-(trifluoromethyl)-1,2-dihydropyridin-3-yl)urea]",< 10 nM

# Other lines, results leading:
row,Kd,SMILES
1,50 to 1000 nM,"CC(=O)Nc1cnc(N2CCC(CC(=O)Nc3cc(C(F)(F)F)cn(C)c3=O)CC2)cn1 [Example I-3, 2-(1-(5-acetamidopyrazin-2-yl)piperidin-4-yl)-N-(1-methyl-2-oxo-5-(trifluoromethyl)-1,2-dihydropyridin-3-yl)acetamide]"
2,10 to 50 nM,"CN(C(=O)Nc1cc(C(F)(F)F)cn(C)c1=O)C1CCN(c2cnccn2)CC1 [Example I-10, 1-methyl-3-(1-methyl-2-oxo-5-(trifluoromethyl)-1,2-dihydropyridin-3-yl)-1-(1-(pyrazin-2-yl)piperidin-4-yl)urea]"
3,< 10 nM,"CC(=O)Nc1cnc(N2CCC(N(C)C(=O)Nc3cc(C)cc(C(F)(F)F)c3)CC2)cn1 [Example I-13, N-(5-(4-(1-methyl-3-(3-methyl-5-(trifluoromethyl)phenyl)ureido)piperidin-1-yl)pyrazin-2-yl)acetamide]"
4,< 10 nM,"CC(=O)Nc1cnc(N2CCC(N(C)C(=O)Nc3cc(C(F)(F)F)cn(C)c3=O)CC2)cn1 [Example I-14, N-(5-(4-(1-methyl-3-(1-methyl-2-oxo-5-(trifluoromethyl)-1,2-dihydropyridin-3-yl)ureido)piperidin-1-yl)pyrazin-2-yl)acetamide]"
5,< 10 nM,"CN(C(=O)Nc1cc(C(F)(F)F)cn(C)c1=O)C1CCN(c2cnc3[nH]ccc3n2)CC1 [Example I-15, 1-(1-(5H-pyrrolo[2,3-b]pyrazin-2-yl)piperidin-4-yl)-1-methyl-3-(1-methyl-2-oxo-5-(trifluoromethyl)-1,2-dihydropyridin-3-yl)urea]"
6,< 10 nM,"CC(=O)Nc1cnc(N2CCC(N(C)C(=O)Nc3cccc(C(F)(F)F)c3)CC2)cn1 [Example I-16, N-(5-(4-(1-methyl-3-(3-(trifluoromethyl)phenyl)ureido)piperidin-1-yl)pyrazin-2-yl)acetamide]"
7,< 10 nM,"CN(C(=O)Nc1cc(C(F)(F)F)cn(C)c1=O)C1CCN(c2cnc(NC(=O)C3CC3)cn2)CC1 [Example I-18, N-(5-(4-(1-methyl-3-(1-methyl-2-oxo-5-(trifluoromethyl)-1,2-dihydropyridin-3-yl)ureido)piperidin-1-yl)pyrazin-2-yl)cyclopropanecarboxamide]"
8,< 10 nM,"CC(=O)Nc1ccc(N2CCC(N(C)C(=O)Nc3cc(C(F)(F)F)cn(C)c3=O)CC2)cn1 [Example I-20, N-(5-(4-(1-methyl-3-(1-methyl-2-oxo-5-(trifluoromethyl)-1,2-dihydropyridin-3-yl)ureido)piperidin-1-yl)pyridin-2-yl)acetamide]"
9,< 10 nM,"CC(=O)Nc1cnc(N2CCC(N(C)C(=O)Nc3cc(C(F)(F)F)cc(C)n3)CC2)cn1 [Example I-23, N-(5-(4-(1-methyl-3-(6-methyl-4-(trifluoromethyl)pyridin-2-yl)ureido)piperidin-1-yl)pyrazin-2-yl)acetamide]"
10,< 10 nM,"CN(C(=O)Nc1cc(C(F)(F)F)cn(C)c1=O)C1CCN(c2ccc(NC(=O)C3CC3)nc2)CC1 [Example I-24, N-(5-(4-(1-methyl-3-(1-methyl-2-oxo-5-(trifluoromethyl)-1,2-dihydropyridin-3-yl)ureido)piperidin-1-yl)pyridin-2-yl)cyclopropanecarboxamide]"
11,< 10 nM,"CN(C(=O)Nc1cc(C(F)(F)F)cn(C)c1=O)C1CCN(c2cnc3[nH]ncc3c2)CC1 [Example I-26, 1-(1-(1H-pyrazolo[3,4-b]pyridin-5-yl)piperidin-4-yl)-1-methyl-3-(1-methyl-2-oxo-5-(trifluoromethyl)-1,2-dihydropyridin-3-yl)urea]"
